This is an account of results in article PMC9268243, “Metabolic Behaviors of Aconitum Alkaloids in Different Concentrations of Aconiti Lateralis Radix Praeparata and Effects of Aconitine in Healthy Human and Long QT Syndrome Cardiomyocytes” (Molecules, 2022).

Where two headings read alike, the source gives them in different places.

For one data set, the system named is CYP3A4. To be noted: in vivo; cited from earlier work.
The nature of data set [1]: Pharmacokinetic study of six aconitum alkaloids in rat plasma after oral Fu Zi extracts (UPLC-MS/MS). The note with it: SD rat plasma, mean ± SD, n = 8; for Cmax / Tmax / AUC(0-t) / CL/F / Vd/F / half-life: both sexes, Sprague Dawley, in vivo; for AUC(0-t): read-out: AUC(0–48h); for CL/F: read-out: CLz/F (converted); for Vd/F: read-out: Vz/F; for half-life: read-out: t1/2z (converted). In kind it is in vivo, Sprague Dawley rats. Here is the method:
Fu Zi (200 g) was taken and broken by a pulverizer to the size of 0.5–1.0 cm. The broken Fu Zi was soaked in 1.6 L distilled water and boiled for 0.5 h. The filtrate was collected and the previous step was repeated for the filtered residue. The mixed filtrates were precipitated with 60% ethanol, and then centrifuged (2000× g, 10 min). The supernatant was decompressed and concentrated to a final density of 2.0 g/mL by the amount of the crude drugs. The final concentration of ethanol in Fu Zi extracts before administration was below 0.5%. The extract was subsequently kept at −20 °C for oral administration to rats.
All samples were analyzed on UPLC® I-Class and Xevo® TQS mass spectrometry combined system. Separations by a Waters ACQUITY UPLC® HSS T3(2.1 mm × 100 mm, 1.8 μm) column were conducted with a mobile phase of water (A) and acetonitrile (B), both containing 0.1% formic acid, at the flow rate of 0.3 mL·min^−1.The run time was 5.0 min and the gradient elution program was adopted as follows: 0–0.3 min, 10% B; 0.3–1 min, 10–50% B; 1–2.5 min, 50–90% B; 2.5–3 min, 90% B; 3–5 min, 10% B. The temperature of the column and samples were set at 45 °C and 10 °C, respectively. The volume of injection was 2 μL.
The detection was quantified by a triple quadrupole mass spectrometer that was set as multiple reactive monitoring (MRM) in the electrospray positive ionization mode (ESI+). The correlative parameters were as follows: capillary voltage: 3 kV; desolvation gas flow: 800 L·h^−1; cone gas flow: 150 L·h^−1; source temperature: 150 °C; desolvation temperature: 500 °C.
The method of […] was utilized. An amount of 100 μL of plasma samples from rats after oral administration of Fu Zi extracts was precipitated with 300 μL of 50% acetonitrile plus 50% methanol, vortexed for 1.0 min and centrifuged at a speed of 12,000× g at 4 °C for 10 min. The supernatant was transferred to another 1.5 mL centrifuge tube, dried with a stream of nitrogen at 40 °C, redissolved in 50 μL methanol and centrifuged at 12,000× g for 10 min. Then, the supernatant was pipetted out into the autosampler vials and analyzed by UPLC-MS/MS system.
24 Sprague Dawley rats (half male and female, weight 180–220 g) were purchased from Beijing Weitong Lihua Biotechnology Co.Ltd. (Beijing, China). The license number of experimental animal production was SCXK (Jing) 2016–0006. The animals were maintained under a standard laboratory condition (humidity: 40–70%, room temperature: 20–26 °C, […], 12 h dark-light cycle) and fed separately. All animal experiments were conducted according to the Guide for the Care and Use of Laboratory Animals (National Research Council of the USA, 1996) and approved by the Institutional Animal Care and Use Committee (IACUC-DWZX-2020-776). After 5 days of acclimation, the rats were fasted for 12 h but provided with water freely before the experiments. The rats were randomly divided into 3 groups: high (2.0 g/kg), middle (1.0 g/kg), and low (0.5 g/kg) dose groups. The Fu Zi extracts was administered to each rat intragastrically. An equivalent of 0.20 mL blood samples were collected from the fossa orbitalis vein into 1.5 mL heparinized centrifuge tubes at the designated time points after dosing: 0.08, 0.25, 0.5, 1, 2, 4, 8, 12, 24, and 48 h. The plasma samples were pipetted out into another 1.5 mL centrifuge tubes after being centrifuged at 5000× g for 10 min and then stored at −20 °C until further analysis.
The data were acquired by […] from Waters (UNIFI). Microsoft Office Excel and the SPSS software (Version 13.0) was used for data analysis. The data below the LLOQ were regarded as zero in summary statistics. The pharmacokinetic parameters were calculated by DAS pharmacokinetic program (Version 2.0) and all analyzed by non-compartmental method. […] All data were presented as mean ± SD. […]

Consider `COC[C@@]12CC[C@H](OC)[C@]34C(C([C@H](OC)[C@H]13)[C@]1(OC(C)=O)[C@H]3[C@@H](OC(=O)c5ccccc5)[C@](O)(C[C@H]34)[C@@H](OC)[C@@H]1O)N(C)C2` [HA, hypaconitine], for which the “main CYP 450 subtype for alkaloid metabolism” value in the data set on CYP3A4 is on record as “CYP3A4”. Also, in data set [1] (oral Fu Zi extracts 1.0 g/kg), the t1/2z amounted to 8.72 ± 3.40 h, the concentration peaked (Cmax) at 9.22 ± 1.78 ng/mL, the time to peak (Tmax) was 3.88 ± 2.03 h and the AUC(0-t) worked out at 115 ± 25 ng·h/mL. Moreover, in data set [1] (oral Fu Zi extracts 1.0 g/kg), the CL/F was 59.5 mL/min/kg and the Vd/F was found to be 45.3 ± 26.3 L/kg. Also, in data set [1] (oral Fu Zi extracts 0.5 g/kg), the peak concentration (Cmax) amounted to 6.37 ± 1.96 ng/mL, the Tmax was found to be 2.14 ± 0.9 h, the AUC(0-t) turned out to be 62.9 ± 26.9 ng·h/mL and the CL/F is 67 mL/min/kg. In data set [1] (oral Fu Zi extracts 0.5 g/kg), the Vd/F worked out at 12.8 ± 6.88 L/kg and the half-life is 1.83 ± 0.64 h. For the same compound, in data set [1] (oral Fu Zi extracts 2.0 g/kg), the Cmax worked out at 12.5 ± 4.42 ng/mL, the Tmax came out at 1.6 ± 1.47 h, the AUC(0-t) is 186 ± 64.7 ng·h/mL and the CL/F is 79.7 mL/min/kg. Besides, in data set [1] (oral Fu Zi extracts 2.0 g/kg), the Vd/F was determined as 80.4 ± 35.5 L/kg and the half-life was 11.9 ± 4.59 h.
As for `CCN1CC2(COC)C(O)CC(OC)C34C5CC6(O)C(OC)C(O)C(O)(C5C6OC(=O)c5ccccc5)C(C(OC)C23)C14` (stereo not shown) [BAC, benzoylaconine], in data set [1] (oral Fu Zi extracts 0.5 g/kg), the highest level (Cmax) was 1.52 ± 0.71 ng/mL, the time to peak (Tmax) was 3.72 ± 3.6 h, the AUC(0-t) was determined as 16.2 ± 5.43 ng·h/mL and the CL/F was 460 mL/min/kg. Also, in data set [1] (oral Fu Zi extracts 0.5 g/kg), the Vd/F is 194 ± 117 L/kg and the half-life was 4.48 ± 0.64 h. Besides, in data set [1] (oral Fu Zi extracts 1.0 g/kg), the Cmax was found to be 3.24 ± 2.01 ng/mL, the Tmax is 5.71 ± 5.07 h, the AUC(0-t) was found to be 38.5 ± 15.4 ng·h/mL and the CL/F was 271 mL/min/kg. Further, in data set [1] (oral Fu Zi extracts 1.0 g/kg), the Vd/F came to 152 ± 97.1 L/kg and the half-life is 5.91 ± 3.79 h. In addition, in data set [1] (oral Fu Zi extracts 2.0 g/kg), the maximum concentration (Cmax) is 5.91 ± 2.25 ng/mL, the Tmax was 0.34 ± 0.2 h, the AUC(0-t) was 50.5 ± 19.4 ng·h/mL and the CL/F was 583 mL/min/kg. Moreover, in data set [1] (oral Fu Zi extracts 2.0 g/kg), the Vd/F was found to be 801 ± 396 L/kg and the half-life was 13.7 ± 4.26 h.
